Reference: US6737383B1, “Herbicidal oxadiazolidines” (priority 1999, dated 2004)

Tests used:
large crabgrass = assay: Test D large crabgrass; type: in vivo, Digitaria sanguinalis; details: Postemergence, 0 to 100 scale
Alexandergrass = assay: Test D Alexandergrass; type: in vivo, Brachiaria plantaginea; details: Postemergence
guineagrass = assay: Test D guineagrass; type: in vivo, Panicum maximum; details: Postemergence, 0 to 100 scale
redroot pigweed [1] = assay: Test E redroot pigweed; type: in vivo, Amaranthus retroflexus; details: Preemergence
spring barley = assay: Test E spring barley; type: in vivo, Hordeum vulgare; details: Preemergence
sunflower = assay: Test E sunflower; type: in vivo, Helianthus annuus; details: Postemergence
Procedure: […] All plant species were grown using normal greenhouse practices. Crop and weed species include annual bluegrass (Poa annua), blackgrass (Alopecurus myosuroides), black nightshade (Solanum nigra), chickweed (Stellaria media), common poppy (Papaver rhoeas), deadnettle (Lamium amplexicaule), downy brome (Bromus tectorum), field violet (Viola arvensis), galium (Galium aparine), green foxtail (Setaria viridis), Italian ryegrass (Lolium multiflorum), jointed goatgrass (Aegilops cylindrica), kochia (Kochia scoparia), lambsquarters (Chenopodium album), littleseed canarygrass (Phalaris minor), rape (Brassica napus), redroot pigweed (Amaranthus retroflexus), Russian thistle (Salsola kali), scentless chamomile (Matricaria inodora), spring barley (Hordeum vulgare), sugar beet (Beta vulgaris), sunflower (Helianthus annuus), ivyleaf speedwell (Veronica hederaefolia), spring wheat (Triticum aestivum), winter wheat (Triticum aestivum), wild buckwheat (Polygonum convolvulus), wild mustard (Sinapis arvensis), wild oat (Avena fatua), windgrass (Apera spica-venti) and winter barley (Hordeum vulgare).
(§1) Treated plants and untreated controls were maintained in a greenhouse for approximately 21 to 28 days, after which all treated plants were compared to untreated controls and visually evaluated. […] A dash response (-) means no test result.

bermuda-grass = assay: Test D bermudagrass; type: in vivo, Cynodon dactylon; details: Postemergence, 0 to 100 scale
surinam grass = assay: Test D surinam grass; type: in vivo, Brachiaria decumbens; details: Postemergence, 0 to 100 scale; for Surinam grass plant response rating: 0 no injury, 100 complete control
dallisgrass = assay: Test D dallisgrass; type: in vivo, Paspalum dilatatum; details: Postemergence, 0 to 100 scale
redroot pigweed [2] = assay: Test E redroot pigweed; type: in vivo, Amaranthus retroflexus; details: Postemergence
Procedure: (§2) Compounds evaluated in this test were formulated in a non-phytotoxic solvent mixture which included a surfactant and applied to plants that were in the 1- to 4-leaf stage (postemergence application). A mixture of sandy loam soil and greenhouse potting mix in a 60:40 ratio was used for the postemergence test.
(§3) Plantings of these crops and weed species were adjusted to produce plants of appropriate size for the postemergence test. All plant species were grown using normal greenhouse practices. Crop and weed species include annual bluegrass (Poa annua), blackgrass (Alopecurus myosuroides), black nightshade (Solanum nigra), chickweed (Stellaria media), common poppy (Papaver rhoeas), deadnettle (Lamium amplexicaule), downy brome (Bromus tectorum), field violet (Viola arvensis), galium (Galium aparine), green foxtail (Setaria viridis), Italian ryegrass (Lolium multiflorum), jointed goatgrass (Aegilops cylindrica), kochia (Kochia scoparia), lambsquarters (Chenopodium album), littleseed canarygrass (Phalaris minor), rape (Brassica napus), redroot pigweed (Amaranthus retroflexus), Russian thistle (Salsola kali), scentless chamomile (Matricaria inodora), spring barley (Hordeum vulgare), sugar beet (Beta vulgaris), sunflower (Helianthus annuus), ivyleaf speedwell (Veronica hederaefolia), spring wheat (Triticum aestivum), winter wheat (Triticum aestivum), wild buckwheat (Polygonum convolvulus), wild mustard (Sinapis arvensis), wild oat (Avena fatua), windgrass (Apera spica-venti) and winter barley (Hordeum vulgare).
as §1

Spanishneedles = assay: Test D Spanishneedles; type: in vivo, Bidens bipinnata; details: Postemergence, 0 to 100 scale; for Spanishneedles plant response rating: 0 no injury, 100 complete control
downy brome = assay: Test E downy brome; type: in vivo, Bromus tectorum; details: Postemergence; for Plant response rating, Downy brome: 0 to 100 scale
Procedure: as §2, §3, §1

common pursiane = assay: Test D common purslane; type: in vivo, Portulaca oleracea; details: Postemergence, 0 to 100 scale
field violet = assay: Test E field violet; type: in vivo, Viola arvensis; details: Postemergence
Procedure: as §2, §3, §1

Italian ryegrass = assay: Test E Italian ryegrass; type: in vivo, Lolium multiflorum; details: Postemergence
Procedure, shortened: (§4)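 Plants were grown under normal greenhouse practice; for postemergence, in sandy loam soil mixed 60:40 with potting mix, treated at the 1- to 4-leaf stage. The compound was in a non-phytotoxic solvent carrying a surfactant. After roughly 21 to 28 days plants were scored visually against untreated plants.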

sandbur = assay: Test D sandbur; type: in vivo, Cenchrus echinatus; details: Postemergence, 0 to 100 scale; for Sandbur plant response rating: 0 no injury, 100 complete control
rape = assay: Test E rape; type: in vivo, Brassica napus; details: Postemergence
Procedure, shortened: as §4

[3] = Rate 64 g/ha, 0 no injury, 100 complete control
[4] = Rate 125 g/ha, 0 no injury, 100 complete control
[5] = Rate 64 g/ha, 0 to 100 scale, 0 no injury, 100 complete control
[6] = Rate 125 g/ha, 0 to 100 scale, 0 no injury, 100 complete control
[7] = Rate 500 g/ha, 0 to 100 scale (0 no injury, 100 complete control)
[8] = Rate 125 g/ha, 0 to 100 scale (0 no effect, 100 complete control)
[9] = Rate 500 g/ha, 0 to 100 scale where 0 is no effect and 100 is complete control
[10] = Rate 500 g/ha, 0 to 100 scale, 0 no effect, 100 complete control
[11] = Rate 250 g/ha, 0 to 100 scale where 0 is no effect and 100 is complete control
[12] = Rate 500 g/ha, 0 no effect, 100 complete control
[13] = Rate 250 g/ha, 0 to 100 scale (0 no effect, 100 complete control)

C=CCn1c(=O)on(C(=O)N(c2ccc(F)cc2)C(C)C)c1=O [Compound 146]
Plant response rating Large crabgrass (large crabgrass; [3]): 20 | Plant response rating Large crabgrass (large crabgrass; [4]): 20 | Plant response rating Large crabgrass (large crabgrass; Rate 250 g/ha): 50 | Plant response rating Large crabgrass (large crabgrass; Rate 500 g/ha): 65 | Plant response rating, Alexandergrass (Alexandergrass; [5]): 10 | Plant response rating, Alexandergrass (Alexandergrass; [6]): 20 | Plant response rating, Alexandergrass (Alexandergrass; Rate 250 g/ha, 0 to 100 scale): 40 | Plant response rating, Alexandergrass (Alexandergrass; [7]): 65 | Plant response rating, Alexandergrass (Alexandergrass; Rate 500 g/ha, 0 to 100 scale): 65 | Plant response rating, Guineagrass (guineagrass; [3]): 10 | Plant response rating, Guineagrass (guineagrass; [4]): 10 | Plant response rating, Guineagrass (guineagrass; Rate 250 g/ha): 35 | Plant response rating, Guineagrass (guineagrass; Rate 500 g/ha): 60 | Plant response rating, Redroot pigweed (redroot pigweed [1]; [8]): 70 | Redroot pigweed plant response rating (0 to 100 scale) (redroot pigweed [1]; Rate 250 g/ha): 100 | Plant response rating, Redroot pigweed (redroot pigweed [1]; [9]): 100 | Plant response rating, Spring Barley (spring barley; [8]): 20 | Spring Barley plant response rating (0 to 100 scale) (spring barley; Rate 250 g/ha): 10 | Plant response rating, Spring Barley (spring barley; [9]): 90 | Plant response rating, Sunflower (sunflower; Rate 62 g/ha, 0 to 100 scale): 0 | Plant response rating, Sunflower (sunflower; Rate 125 g/ha, 0 to 100 scale): 40 | Plant response rating, Sunflower (sunflower; [10]): 50 | Sunflower plant response rating (sunflower; [11]): 40 | Plant response rating, Bermudagrass (bermuda-grass; [3]): 0 | Plant response rating, Bermudagrass (bermuda-grass; [4]): 0 | Plant response rating, Bermudagrass (bermuda-grass; Rate 250 g/ha): 0 | Plant response rating, Bermudagrass (bermuda-grass; Rate 500 g/ha): 35 | Plant response rating Surinam grass (surinam grass; Rate 500 g/ha): 80 | Plant response rating, Dallisgrass (dallisgrass; [4]): 30 | Plant response rating, Dallisgrass (dallisgrass; Rate 250 g/ha): 60 | Plant response rating, Dallisgrass (dallisgrass; Rate 500 g/ha): 80 | Plant response rating, Redroot pigweed (redroot pigweed [2]; Rate 62 g/ha, 0 to 100 scale): 30 | Plant response rating, Redroot pigweed (redroot pigweed [2]; Rate 125 g/ha, 0 to 100 scale): 20 | Plant response rating, Redroot pigweed (redroot pigweed [2]; [10]): 50 | Redroot pigweed plant response rating (redroot pigweed [2]; [11]): 10 | Spanishneedles plant response rating (Spanishneedles; Rate 64 g/ha): 10 | Spanishneedles plant response rating (Spanishneedles; Rate 125 g/ha): 10 | Plant response rating, Spanishneedles (Spanishneedles; Rate 250 g/ha): 10 | Plant response rating, Spanishneedles (Spanishneedles; Rate 500 g/ha): 20 | Plant response rating, Downy brome (downy brome; Rate 62 g/ha): 55 | Plant response rating, Downy brome (downy brome; Rate 125 g/ha): 10 | Plant response rating, Downy brome (downy brome; [12]): 5 | Downy brome plant response rating (downy brome; [11]): 0 | Plant response rating, C. purslane (common pursiane; [3]): 0 | Plant response rating, C. purslane (common pursiane; [4]): 0 | Plant response rating, C. purslane (common pursiane; Rate 250 g/ha): 20 | Plant response rating, C. purslane (common pursiane; Rate 500 g/ha): 20 | Plant response rating, Field violet (field violet; Rate 62 g/ha, 0 to 100 scale): 50 | Plant response rating, Field violet (field violet; Rate 125 g/ha, 0 to 100 scale): 0 | Plant response rating, Field violet (field violet; [10]): 10 | Field violet plant response rating (field violet; [11]): 0 | Plant response rating, I. Ryegrass (Italian ryegrass; Rate 62 g/ha, 0 to 100 scale): 50 | Plant response rating, I. Ryegrass (Italian ryegrass; Rate 125 g/ha, 0 to 100 scale): 10 | Plant response rating, I. Ryegrass (Italian ryegrass; [10]): 50 | I. Ryegrass plant response rating (Italian ryegrass; [11]): 10 | Sandbur plant response rating (sandbur; Rate 64 g/ha): 0 | Plant response rating, Sandbur (sandbur; Rate 250 g/ha): 85 | Plant response rating, Sandbur (sandbur; Rate 500 g/ha): 80 | Plant response rating, Rape (rape; Rate 62 g/ha, 0 to 100 scale): 60 | Plant response rating, Rape (rape; Rate 125 g/ha, 0 to 100 scale): 40 | Plant response rating, Rape (rape; [10]): 60 | Rape plant response rating (rape; [11]): 50

CC(C)N(C(=O)n1oc(=O)n(C2CC2)c1=O)c1ccc(F)cc1F [Compound 299]
Plant response rating Large crabgrass (large crabgrass; [3]): 100 | Plant response rating Large crabgrass (large crabgrass; [4]): 100 | Plant response rating Large crabgrass (large crabgrass; Rate 250 g/ha): 100 | Plant response rating Large crabgrass (large crabgrass; Rate 500 g/ha): 100 | Plant response rating, Alexandergrass (Alexandergrass; [5]): 90 | Plant response rating, Alexandergrass (Alexandergrass; [6]): 100 | Plant response rating, Alexandergrass (Alexandergrass; Rate 250 g/ha, 0 to 100 scale): 100 | Plant response rating, Alexandergrass (Alexandergrass; [7]): 100 | Plant response rating, Alexandergrass (Alexandergrass; Rate 500 g/ha, 0 to 100 scale): 100 | Guineagrass plant response rating (guineagrass; [3]): 20 | Plant response rating, Guineagrass (guineagrass; [3]): 0 | Plant response rating, Guineagrass (guineagrass; [4]): 80 | Plant response rating, Guineagrass (guineagrass; Rate 250 g/ha): 100 | Plant response rating, Guineagrass (guineagrass; Rate 500 g/ha): 100 | Plant response rating, Bermudagrass (bermuda-grass; [3]): 90 | Plant response rating, Bermudagrass (bermuda-grass; [4]): 100 | Plant response rating, Bermudagrass (bermuda-grass; Rate 250 g/ha): 100 | Plant response rating, Bermudagrass (bermuda-grass; Rate 500 g/ha): 100 | Surinam grass plant response rating (surinam grass; Rate 64 g/ha): 50 | Surinam grass plant response rating (surinam grass; Rate 125 g/ha): 100 | Plant response rating Surinam grass (surinam grass; Rate 250 g/ha): 100 | Plant response rating Surinam grass (surinam grass; Rate 500 g/ha): 100 | Plant response rating, Dallisgrass (dallisgrass; [3]): 100 | Plant response rating, Dallisgrass (dallisgrass; [4]): 100 | Plant response rating, Dallisgrass (dallisgrass; Rate 250 g/ha): 100 | Plant response rating, Dallisgrass (dallisgrass; Rate 500 g/ha): 100 | Spanishneedles plant response rating (Spanishneedles; Rate 64 g/ha): 0 | Spanishneedles plant response rating (Spanishneedles; Rate 125 g/ha): 0 | Plant response rating, Spanishneedles (Spanishneedles; Rate 250 g/ha): 20 | Plant response rating, Spanishneedles (Spanishneedles; Rate 500 g/ha): 100 | Plant response rating, C. purslane (common pursiane; [3]): 0 | Plant response rating, C. purslane (common pursiane; [4]): 0 | Plant response rating, C. purslane (common pursiane; Rate 250 g/ha): 0 | Plant response rating, C. purslane (common pursiane; Rate 500 g/ha): 0 | Sandbur plant response rating (sandbur; Rate 64 g/ha): 90 | Sandbur plant response rating (sandbur; Rate 125 g/ha): 100 | Plant response rating, Sandbur (sandbur; Rate 250 g/ha): 100 | Plant response rating, Sandbur (sandbur; Rate 500 g/ha): 100

CC(C)N(C(=O)n1oc(=O)n(C(C)C)c1=O)c1ccc(F)cc1F [Compound 109]
Plant response rating, Redroot pigweed (redroot pigweed [1]; [8]): 70 | Plant response rating, Redroot pigweed (redroot pigweed [1]; Rate 250 g/ha, 0 to 100 scale): 100 | Plant response rating, Redroot pigweed (redroot pigweed [1]; [9]): 100 | Plant response rating, Spring Barley (spring barley; [8]): 5 | Plant response rating, Spring Barley (spring barley; Rate 250 g/ha, 0 to 100 scale): 20 | Plant response rating, Spring Barley (spring barley; [9]): 50 | Plant response rating, Sunflower (sunflower; Rate 125 g/ha, 0 to 100 scale): 30 | Plant response rating, Sunflower (sunflower; [13]): 30 | Plant response rating, Sunflower (sunflower; [10]): 40 | Plant response rating, Redroot pigweed (redroot pigweed [2]; Rate 125 g/ha, 0 to 100 scale): 20 | Plant response rating, Redroot pigweed (redroot pigweed [2]; [13]): 15 | Plant response rating, Redroot pigweed (redroot pigweed [2]; [10]): 15 | Plant response rating, Downy brome (downy brome; Rate 125 g/ha): 0 | Plant response rating, Downy brortie (downy brome; [13]): 0 | Plant response rating, Downy brome (downy brome; [12]): 0 | Plant response rating, Field violet (field violet; Rate 125 g/ha, 0 to 100 scale): 10 | Plant response rating, Field violet (field violet; [13]): 20 | Plant response rating, Field violet (field violet; [10]): 40 | Plant response rating, I. Ryegrass (Italian ryegrass; Rate 125 g/ha, 0 to 100 scale): 10 | Plant response rating, I. Ryegrass (Italian ryegrass; [13]): 10 | Plant response rating, I. Ryegrass (Italian ryegrass; [10]): 65 | Plant response rating, Rape (rape; Rate 125 g/ha, 0 to 100 scale): 50 | Plant response rating, Rape (rape; [13]): 50 | Plant response rating, Rape (rape; [10]): 60
